Assay results published in paper PMC7684578, “Isopedopeptins A–H: Cationic Cyclic Lipodepsipeptides from Pedobacter cryoconitis UP508 Targeting WHO Top-Priority Carbapenem-Resistant Bacteria” (ACS Chemical Biology, 2020).
In brackets after ≈: the same amount, converted by molar mass. Starred links: 1 amine or outer side, 2 acyl side, 3 side chain; linkers in the order of their positions; H or OH if unused. Positions of bridges follow the written chain, without caps; N, C: chain ends. Non-standard residues stand in square brackets, D forms with d. Residues, ends and D or L forms follow the SMILES beside them. X4 = CC(C)CCC=CCCC[C@H](CC(=O)[*:1])O[*:2]; X6 = CC(C)CCCCC=CC[C@H](CC(=O)[*:1])O[*:2]; X5 = CC(C)CCCCCCC[C@H](CC(=O)[*:1])O[*:2]; X3 = CC(C)CCCCC[C@H](CC(=O)[*:1])O[*:2]; X7 = CCCCCCC=CC[C@H](CC(=O)[*:1])O[*:2]; X2 = CCCCCCC[C@H](CC(=O)[*:1])O[*:2]; Val(3-OH) = CC(C)(O)[C@H](N)C(=O)O; X1 = C/C=C(/N[*:1])C(=O)[*:2]; Dab = NCC[C@H](N)C(=O)O; Dap = NC[C@H](N)C(=O)O

Key:
Assay in all cases: MIC, broth micro-dilution, primary panel
P. aeruginosa LMG6395T = format: cell-based, Pseudomonas aeruginosa; conditions: WT; for MIC: Pseudomonas aeruginosa, LMG6395T
Description: (§1) Isopedopeptin E (5): off-white solid; [α] D20 –36° (c 0.3 in methanol); UV (MeOH) λ max (log10 ε) 240 (3.8); 1H NMR (DMSO-d 6, 600 MHz), see Table S5; 13C NMR (DMSO-d 6, 150 MHz), see Table […]
(§2) Isopedopeptin F (6): off-white solid; [α] D20 –32° (c 0.05 in methanol); UV (MeOH) λ max (log10 ε) 240 (3.8); 1H NMR (DMSO-d 6, 600 MHz), see Table S6; 13C NMR (DMSO-d 6, 150 MHz), see Table […]
(§3) Isopedopeptin G (7): off-white solid; [α] D20 –49° (c 0.1 in methanol); UV (MeOH) λ max (log10 ε) 240 (4.0); 1H NMR (DMSO-d 6, 600 MHz), see Table S7; 13C NMR (DMSO-d 6, 150 MHz), see Table […]
(§4) Isopedopeptin H (8): off-white solid; [α] D20 –56° (c 0.2 in methanol); UV (MeOH) λ max (log10 ε) 240 (4.0); 1H NMR (DMSO-d 6, 600 MHz), see Table S8; 13C NMR (DMSO-d 6, 150 MHz), see Table […]
(§5) Minimal Inhibitory Concentration (MIC) against the primary panel of microorganisms.
(§6) The MIC for compounds 1–8 was measured by means of a broth micro-dilution method in 96-wells microtiter plates with the addition of E. coli LMG15862, LMG1041 T, E. cloacaeA. baumannii […]
(§7) H-29 and A. fumigatus J7, as test organisms. The test media were AM3 Broth (BD Difco Ltd) mixed with phosphate buffered saline (PBS, Amresco LLC, Solon, USA) in 1:4 ratio (E. coli, A. baumannii, E. cloacae, K. pneumoniae and P. aeruginosa), AM3 Broth mixed with PBS in 1:1 ratio (S. aureus), ME (A. fumigatus) and ISP2 (C. albicans). Prior to MIC determination, the cell concentration of tested bacterial/fungal pathogens was adjusted to ≅ 4 × 10^5 CFU/mL (acceptable range 2 – 6 × 10^5 CFU/mL). Cell concentration was confirmed by colony counting after diluting and plating the respective bacterial pathogen on VPA plates [VPA, 10 g Vegetable Peptone Broth (Oxoid Ltd., Basingstoke,UK), 15 g Bacto Agar (Difco Ltd, Tyrone) in 1 L deionised water] directly after each of MIC-tests. The cells of C. albicans were plated on ISP2 agar plates [ISP2, 15 g Bacto Agar (Difco Ltd) in 1 L deionised water] and respectively spores of A. fumigatus were plated on MEA plates.
(§8) Plates were, subsequently, incubated at 37 °C in the dark, and viable colonies counted after 16 to 24 h.
(§9) To estimate MIC values (concentration range between 0.05 and 50 µg/mL), solutions of the tested compounds (100, 10 and 1 and if needed 0.1 µg/mL in MeOH) were dispensed into wells of microtiter plate(s) and the solvent was evaporated in a fume-hood. Subsequently, suspensions of pathogen cells in the appropriate medium were dispensed to the wells of microtiter plates and the growth of pathogens were observed after 16 to 20 h of incubation at 37 °C in the dark. Positive controls were the respective pathogen cells suspended in untreated sterile media without addition of compounds(s) and negative controls were the media only. MIC values were defined as the lowest concentration of each compound with no visible growth of pathogen. All MIC tests were performed in triplicate and […]
(§10) MIC determination for compound 2 against an extended panel of bacterial strains.
(§11) Compound 2 was evaluated against a panel of Gram-negative bacteria (Hughes strain collection), including: A. baumannii ATCC 19606, wild-type; BM4454, multidrug-resistant clinical isolate; BM4652, efflux-defective derivative of BM4454; CH9622, colistin-resistant clinical isolate; E. coli ATCC 25922, wild-type; CH3130, efflux-defective ΔtolC mutant isogenic to ATCC 25922; D22, a drug-hypersensitive lpxC mutant of E. coli; CH3491, multidrug-resistant clinical isolate; CH9623 and CH9624, colistin-resistant clinical isolates carrying mcr-1; K. pneumoniae ATCC 13833, wild-type; […]
(§12) clinical isolate; CH9625 and CH9626, colistin-resistant clinical isolates; P. aeruginosa PAO1, wild-type; PAO750, efflux-defective mutant isogenic to PAO1. The in vitro antimicrobial activity of each compound was determined by measuring the MIC value using the broth micro-dilution technique in cation-adjusted Mueller-Hinton II broth (Becton-Dickinson, 212322) according to EUCAST and CLSI guidelines. Each compound prepared in MHII medium was dispensed into a 96-well round- […]

A. baumannii LMG1041T = format: cell-based; conditions: Acinetobacter baumannii, WT
Description: as §1, §2, §3, §4, §5, §6, §7, §8, §9, §10, §11, §12

A. fumigatus J7 = format: cell-based; conditions: Aspergillus fumigatus
Description: as §1, §2, §3, §4, §5, §6, §7, §8, §9, §10, §11, §12

E. coli LMG15862 = format: cell-based; conditions: Escherichia coli, β-lactam.
Description: as §1, §2, §3, §4, §5, §6, §7, §8, §9, §10, §11, §12

B. cereus CCUG7414T = format: cell-based; conditions: Bacillus cereus
Description: as §1, §2, §3, §4, §5, §6, §7, §8, §9, §10, §11, §12

E. cloacae LMG2783T = format: cell-based; conditions: Enterobacter cloacae, WT
Description: as §1, §2, §3, §4, §5, §6, §7, §8, §9, §10, §11, §12

S. aureus LMG15975 = format: cell-based; conditions: Staphylococcus aureus, LMG15975 / MRSA
Description: as §1, §2, §3, §4, §5, §6, §7, §8, §9, §10, §11, §12

C. albicans H-29 = format: cell-based; conditions: Candida albicans, H29; WT
Description: as §1, §2, §3, §4, §5, §6, §7, §8, §9, §10, §11, §12

SMILES	MIC (P. aeruginosa LMG6395T) [µg/mL]	MIC P. aeruginosa LMG6395T (P. aeruginosa LMG6395T) [µg/mL]	MIC (A. baumannii LMG1041T) [µg/mL]	MIC (A. fumigatus J7) [µg/mL]	MIC (E. coli LMG15862) [µg/mL]	MIC (B. cereus CCUG7414T) [µg/mL]	MIC (E. cloacae LMG2783T) [µg/mL]	MIC (S. aureus LMG15975) [µg/mL]	MIC (C. albicans H-29) [µg/mL]
C/C=C1/NC(=O)[C@H](CCN)NC(=O)[C@H](CC(C)C)NC(=O)[C@H](CN)NC(=O)C[C@@H](CCCC=CCCC(C)C)OC(=O)[C@H](CC(=O)O)NC(=O)[C@H](C(C)C)NC(=O)[C@@H](Cc2ccccc2)NC(=O)[C@H](CN)NC(=O)[C@H]([C@@H](C)O)NC1=O [Compound 7, Isopedopeptin G] ([Dap]L[Dab][X1]T[Dap][dF]VD; linker N-C via X4)	8 to 16 (≈ 7.01 to 14 µM)	8 (≈ 7.01 µM)	8 (≈ 7.01 µM)	> 32	8 (≈ 7.01 µM)	16 (≈ 14 µM)	16 (≈ 14 µM)	16 (≈ 14 µM)	> 32
C/C=C1/NC(=O)[C@H](CCN)NC(=O)[C@H](CC(C)C)NC(=O)[C@H](CN)NC(=O)C[C@@H](CC=CCCCCC(C)C)OC(=O)[C@H](CC(=O)O)NC(=O)[C@H](C(C)C)NC(=O)[C@@H](Cc2ccccc2)NC(=O)[C@H](CN)NC(=O)[C@H]([C@@H](C)O)NC1=O [Compound 8, Isopedopeptin H] ([Dap]L[Dab][X1]T[Dap][dF]VD; linker N-C via X6)	16 (≈ 14 µM)		16 (≈ 14 µM)	> 32	16 (≈ 14 µM)	32 (≈ 28 µM)	16 (≈ 14 µM)	16 (≈ 14 µM)	> 32
C/C=C1/NC(=O)[C@H](CCN)NC(=O)[C@H](CC(C)C)NC(=O)[C@H](CN)NC(=O)C[C@@H](CCCCCCC)OC(=O)[C@H](CC(=O)O)NC(=O)[C@H](C(C)(C)O)NC(=O)[C@@H](Cc2ccccc2)NC(=O)[C@H](CN)NC(=O)[C@H]([C@@H](C)O)NC1=O [Compound 2, isopedopeptin B] ([Dap]L[Dab][X1]T[Dap][dF][Val(3-OH)]D; linker N-C via X2)	8 to 16 (≈ 7.16 to 14.3 µM)	16 (≈ 14.3 µM)	8 (≈ 7.16 µM)	> 32	8 (≈ 7.16 µM)	> 32	32 (≈ 28.6 µM)	32 (≈ 28.6 µM)	32 (≈ 28.6 µM)
C/C=C1/NC(=O)[C@H](CCN)NC(=O)[C@H](CC(C)C)NC(=O)[C@H](CN)NC(=O)C[C@@H](CCCCCCC)OC(=O)[C@H](CC(=O)O)NC(=O)[C@H](C(C)C)NC(=O)[C@@H](Cc2ccccc2)NC(=O)[C@H](CN)NC(=O)[C@H]([C@@H](C)O)NC1=O [Compound 4, isopedopeptin D] ([Dap]L[Dab][X1]T[Dap][dF]VD; linker N-C via X2)	> 32		16 (≈ 14.5 µM)	> 32	32 (≈ 29.1 µM)	32 (≈ 29.1 µM)	32 (≈ 29.1 µM)	> 32	> 32
C/C=C1/NC(=O)[C@H](CCN)NC(=O)[C@H](CC(C)C)NC(=O)[C@H](CN)NC(=O)C[C@@H](CCCCCC(C)C)OC(=O)[C@H](CC(=O)O)NC(=O)[C@H](C(C)C)NC(=O)[C@@H](Cc2ccccc2)NC(=O)[C@H](CN)NC(=O)[C@H]([C@@H](C)O)NC1=O [Compound 5, Isopedopeptin E] ([Dap]L[Dab][X1]T[Dap][dF]VD; linker N-C via X3)	32 (≈ 28.7 µM)		32 (≈ 28.7 µM)	> 32	> 32	16 (≈ 14.3 µM)	> 32	> 32	> 32
C/C=C1/NC(=O)[C@H](CCN)NC(=O)[C@H](CC(C)C)NC(=O)[C@H](CN)NC(=O)C[C@@H](CCCCCCCC(C)C)OC(=O)[C@H](CC(=O)O)NC(=O)[C@H](C(C)(C)O)NC(=O)[C@@H](Cc2ccccc2)NC(=O)[C@H](CN)NC(=O)[C@H]([C@@H](C)O)NC1=O [Compound 6, Isopedopeptin F] ([Dap]L[Dab][X1]T[Dap][dF][Val(3-OH)]D; linker N-C via X5)	32 (≈ 27.6 µM)		16 (≈ 13.8 µM)	> 32	16 (≈ 13.8 µM)	32 (≈ 27.6 µM)	32 (≈ 27.6 µM)	32 (≈ 27.6 µM)	> 32
C/C=C1/NC(=O)[C@H](CCN)NC(=O)[C@H](CC(C)C)NC(=O)[C@H](CN)NC(=O)C[C@@H](CCCCCC(C)C)OC(=O)[C@H](CC(=O)O)NC(=O)[C@H](C(C)(C)O)NC(=O)[C@@H](Cc2ccccc2)NC(=O)[C@H](CN)NC(=O)[C@H]([C@@H](C)O)NC1=O [Compound 1, cyclo(3-hydroxy-9-methyldecanoyl-DAPA1-Leu-DABA-ABA-Thr-DAPA2-Phe-OHVal-Asp)] ([Dap]L[Dab][X1]T[Dap][dF][Val(3-OH)]D; linker N-C via X3)	8 to 16 (≈ 7.07 to 14.1 µM)	16 (≈ 14.1 µM)	4 (≈ 3.54 µM)	> 32	4 (≈ 3.54 µM)	> 32	16 (≈ 14.1 µM)	> 32	32 (≈ 28.3 µM)
C/C=C1/NC(=O)[C@H](CCN)NC(=O)[C@H](CC(C)C)NC(=O)[C@H](CN)NC(=O)C[C@@H](CC=CCCCCCC)OC(=O)[C@H](CC(=O)O)NC(=O)[C@H](C(C)(C)O)NC(=O)[C@@H](Cc2ccccc2)NC(=O)[C@H](CN)NC(=O)[C@H]([C@@H](C)O)NC1=O [Compound 3, isopedopeptin C] ([Dap]L[Dab][X1]T[Dap][dF][Val(3-OH)]D; linker N-C via X7)	32 (≈ 28 µM)		16 (≈ 14 µM)	> 32	16 (≈ 14 µM)	32 (≈ 28 µM)	32 (≈ 28 µM)	> 32	32 (≈ 28 µM)
